Results as given in patent publication US20160237450A1, “METHOD FOR ENHANCING DROUGHT TOLERANCE IN PLANTS” (Plant Response Biotech S.L., priority 2015, published 2016).

How the values were obtained:
Type in all cases: in vivo
sunflower plants = assay: Sunflower field chlorophyll content and seed production after seed treatment; conditions: seed treatment 1 g/l/Kg, natural stress
Protocol: In order to determine the drought or drought stress tolerance after seed treatments with TMAO di-hydrate and germination in the presence of TMAO di-hydrate, barley “Hispanic” seeds, corn “FAO700” seeds, and “Sambro” sunflower seeds were surface sterilized for 3 minutes in ethanol 70%, then rinsed twice and finally included in a pre-treatment solution of 1 g/L TMAO di-hydrate solution (or just water) under shaking for 3 hours at a dose of 1 litre per Kg of seeds. Then, the seeds were sown in randomized plots of 10 sqm in a surface of 2.000 sqm. Chlorophyll content was measured 1 month before harvest. In corn irrigation was applied in half of the plots while the other half only received an initial establishment watering. The barley plots received 200 l of rain per m^2 through the growing season. Some of the plots received a second spray treatment with 1 g/liter of TMAO. […] At least 3 independent plants were treated per experiment.
TMAO di-hydrate applied exogenously which increases the endogenous content of TMAO as if the plants were overexpressing an FMO protein at least 4 times increases plant production in sunflower plants grown in the field without external irrigation. ‘Sambra” sunflower seeds were sown, grown and treated as described above. Seed treatment (1 g/l/Kg TMAO) increased plant chlorophyll content and seed production. […] Both chlorophyll and weight differences between control and TMAO groups are statistically significant. Relative chlorophyll content values are obtained by optical absorbance in two different wavebands: 653 nm (chlorophyll) and 931 nm (Near Infra-Red).

garlic plants = assay: Yield production without drought stress, garlic; conditions: 1 g/l spray every 4 weeks for 3 months, no drought stress
Protocol: (§1) Root or leaves yield was determined in the plants treated with 1 g/l of TMAO di-hydrate or water as described above in order to evaluate the trade-off costs of the treatment with no drought stress.

celery plants = assay: Yield production without drought stress, celery; conditions: 1 g/l spray every 4 weeks for 3 months, no drought stress
Protocol: (§2) In order to determine the plant yield productivity under normal conditions, ‘Sabrina’, ‘Candonga’ and ‘Fortuna’ strawberry varieties, leek, lettuce, “Iceberg” variety, broccoli “Parthenon” variety, celery or kohlrabi plants, were grown under standard production conditions and 120 plants of each variety per treatment (where the treatment was a control comprising standard watering or 1 g/L of TMAO di-hydrate spray every four weeks) were analyzed. Plants were located in four (4) different positions for each group of 30 plants from the same treatment. Fruits, leaves or roots were harvested from individual plants and total weight was determined for each plant.
as §1

barley plants ('Bomi') = assay: Barley dry weight under drought
Protocol: (§3) For each drought or limited water experiment 480 seeds (of either pepper, barley, tomato, cucumber or corn) were sown, producing 384 plants in 512 cm^3 pots (4 plants per pot). Plants were grown under chamber conditions at 21° C. for 3 weeks. Then, the plants were moved to a greenhouse, where average temperature was 25° C. to 28° C. Spray and irrigation treatments as described herein were done when the plants had two extended leaves and the next pair of leaves were coming up.
(§4) Treatments: Twelve pots (containing 48 plants) were irrigated with 40 ml of either: water, 0.1 g/L TMAO di-hydrate solution, 1.0 g/L TMAO di-hydrate solution, or 5.5 g/L TMAO di-hydrate solution. Another set of 12 pots containing 48 plants were sprayed with 40 ml of either water (3.3 ml in average per pot), a solution containing 0.1 g/L TMAO di-hydrate solution, 1.0 g/L TMAO di-hydrate, or 5 g/L, or 10 g/L TMAO di-hydrate. Further sets of 12 pots containing 48 plants were both sprayed with each initial solution TMAO di-hydrate solution and further irrigated with the same TMAO di-hydrate solutions used in the control water sprayed plants. All pots were also watered with 40 ml of water. The sprayed plants were watered with the same volume of water as the “irrigated plants). The pots were located on plastic glass to maintain constant moisture and to avoid liquid spillage during watering. Trays containing the pots were located on greenhouse tables. The distribution of the trays on the table and the position on the pots in the tray was changed every week to avoid position effects.
After the treatments described above, the plants were not watered until the pots completely lost their moisture, taking about 4 to 8 days depending on the season, at which point the plants were extremely wilted for the extreme drought experiments. […] For the “extreme drought” experiments plants were allowed to wilt severely before watering and then the plant survival rate was recorded and analyzed. […]

[1] = test system: broccoli plants (Parthenon); assay: Yield production without drought stress, broccoli; conditions: 1 g/l spray every 4 weeks for 3 months, no drought stress
Protocol: as §2, §1

[2] = test system: tomato plants ('Rio Grande'); assay: Tomato fruit production under limited water irrigation; conditions: 30% water irrigation; 1 g/L spray every 4 weeks
From the text: TMAO di-hydrate applied exogenously which increases the endogenous content of TMAO as if the plants were overexpressing an FMO protein at least 4 times increases plant production in tomato under limited water irrigation. ‘Rio Grande’ tomato seeds were sown, grown and treated as described. Spray treatments with 1 g/L TMAO di-hydrate increased both fruit size and fruit production.

[3] = test system: cucumber plants ('Marketer'); assay: Cucumber plant survival under extreme drought
Protocol: as §3, §4
After the treatments described above, the plants were not watered until the pots completely lost their moisture, taking about 4 to 8 days depending on the season, at which point the plants were extremely wilted for the extreme drought experiments. The plants were then watered once with solutions containing the different amounts of TMAO di-hydrate (0.1 g/L, 1.0 g/L, 5 g/L, or 10 g/L) or just water, after which the plants were left to lose their moisture completely again for three consecutive cycles of watering after wilting. For the “extreme drought” experiments plants were allowed to wilt severely before watering and then the plant survival rate was recorded and analyzed.
TMAO di-hydrate applied exogenously which increases the endogenous content of TMAO as if the plants were overexpressing an FMO protein at least 4 times increases plant survival in cucumber under extreme drought conditions. ‘Marketer’ cucumber seeds were sown, grown and treated as described above.

For `C[N+](C)(C)[O-].O.O` [TMAO di-hydrate, trimethylamine N-oxide di-hydrate], the “% GAIN/LOSS RESPECT TO THE CONTROL, chlorophyll content” value (sunflower plants) was 30%, the “% GAIN/LOSS RESPECT TO THE CONTROL, weight of seeds from 1 plant” value (sunflower plants) was 77.7% and the “C[…] (OD663/OD931, AVERAGE VALUE)” value (sunflower plants) was 21.17 ± 0.54. For the same molecule, the “WEIGHT (GRAMS) OF SEEDS FROM 1 PLANT, AVERAGE VALUE” (sunflower plants) was 161.3 ± 13.1 GRAMS, the “Yield production, % Control” value (garlic plants) was 109% and the “Yield production, % Control” value (celery plants) was 100%. For the same molecule, the “AVERAGE DRY weight ± S.E.” value (barley plants ('Bomi'); initial treatment 1 g/L sprayed, irrigations water, three cycles of wilt-watering) was 1205.4 ± 60.37 mg, the “AVERAGE DRY weight ± S.E.” value (barley plants ('Bomi'); initial treatment 1 g/L watered, irrigations water, three cycles of wilt-watering) was 1371.4 ± 66.13 mg and the “AVERAGE DRY weight ± S.E.” value (barley plants ('Bomi'); no initial treatment, irrigations 1 g/L) was 1216.1 ± 33.44 mg. For the same molecule, the “Yield production, % Control” value [1] was 120%, the “AVERAGE WEIGHT (grams/fruit)” value [2] was 76.73 ± 17.67 grams/fruit and the “increase of fruit production over untreated plants with 30% irrigation” value [2] was 45%. The “SURVIVAL RATE (%)” value ([3]; irrigation 0.1 g/L, initial spray 0.1 g/L) was 82.9 ± 7.4%, the “SURVIVAL RATE (%)” value ([3]; irrigation 0.1 g/L, initial spray 1 g/L) was 91.6 ± 7.4% and the “SURVIVAL RATE (%)” value ([3]; irrigation 0.1 g/L, initial spray 5 g/L) was 95.8 ± 7.4%. The “SURVIVAL RATE (%)” value ([3]; irrigation 0.1 g/L, initial spray water) was 45.8 ± 7.4%, the “SURVIVAL RATE (%)” value ([3]; irrigation 1 g/L, initial spray 0.1 g/L) was 91.6 ± 5.9% and the “SURVIVAL RATE (%)” value ([3]; irrigation 1 g/L, initial spray 1 g/L) was 91.6 ± 5.9%. For the same molecule, the “SURVIVAL RATE (%)” value ([3]; irrigation 1 g/L, initial spray 5 g/L) was 91.6 ± 5.9%, the “SURVIVAL RATE (%)” value ([3]; irrigation 1 g/L, initial spray water) was 87.5 ± 5.9% and the “SURVIVAL RATE (%)” value ([3]; irrigation 5 g/L, initial spray 0.1 g/L) was 75.0 ± 7.2%. The “SURVIVAL RATE (%)” value ([3]; irrigation 5 g/L, initial spray 1 g/L) was 95.8 ± 7.2%, the “SURVIVAL RATE (%)” value ([3]; irrigation 5 g/L, initial spray 5 g/L) was 95.8 ± 7.2% and the “SURVIVAL RATE (%)” value ([3]; irrigation 5 g/L, initial spray water) was 66.6 ± 7.2%. For the same molecule, the “SURVIVAL RATE (%)” value ([3]; irrigation all regimes, initial spray 0.1 g/L) was 80.1 ± 3.4%, the “SURVIVAL RATE (%)” value ([3]; irrigation all regimes, initial spray 1 g/L) was 92.7 ± 3.4% and the “SURVIVAL RATE (%)” value ([3]; irrigation all regimes, initial spray 5 g/L) was 94.7 ± 3.4%. For the same molecule, the “SURVIVAL RATE (%)” value ([3]; irrigation water, initial spray 0.1 g/L) was 83.3 ± 7.2%, the “SURVIVAL RATE (%)” value ([3]; irrigation water, initial spray 1 g/L) was 91.6 ± 7.2% and the “SURVIVAL RATE (%)” value ([3]; irrigation water, initial spray 5 g/L) was 95.8 ± 7.2%.
